In patent publication US20140094434A1, “AMINO ACID COMPOSITION” (AJINOMOTO CO., INC, priority 2011, published 2014):

Tests used:
Male C57BL/6J mice = experiment: Spontaneous motor activity after 90 minutes treadmill running exercise; type: in vivo, mouse; details: Example 5, FIG. 8; oral dextrin 2 g/kg; measured for 3 hours after 90 minutes running; vs water administration
Procedure: Male C57BL/6J mice were habituated to a running exercise using a treadmill, and subjected to a test. The mice were fasted overnight, and orally administered (1) dextrin 2 g/kg, or (2) dextrin 1 g/kg and L-alanine (Ala) 1 g/kg. From 15 minutes after the administration, a 90 minutes running exercise was loaded at a rate of 26 m/minute using the treadmill. After exercise loading, the mice were transferred into a cage, and the motor activity was measured using a spontaneous motor activity monitor (NS-AS01: Neuroscience Inc.) for 3 hours (dextrin and dextrin+Ala in FIG. 8). As a control, the mice administered the above-mentioned (1) or (2) were administered water instead of (1) or (2), and the spontaneous motor activity was measured in the same manner (dextrin (water administration) and dextrin+Ala (water administration) in FIG. 8). In addition, the spontaneous motor activity of mice in a resting state after fasting overnight and free of the exercise loading was measured for 3 hours in the same manner (in rest in FIG. 8).

isolated rat hepatocytes = details: Biochem. J., 1991, 273: 57-62; cited from earlier work
[1] = humans; ingestion of proline; Metabolism, 2004, 53(2): 241-246; cited from earlier work

| Compound | spontaneous motor activity after running exercise loading (Male C57BL/6J mice) | glycogen synthesis (isolated rat hepatocytes) | increase of blood glucose level after glucose ingestion [1] |
| --- | --- | --- | --- |
| dextrin | increased | – | – |
| C[C@H](N)C(=O)O [alanine] | – | enhance | – |
| N[C@@H](Cc1c[nH]cn1)C(=O)O [histidine] | – | enhance | – |
| NC(=O)CC[C@H](N)C(=O)O [glutamine] | – | enhance | – |
| O=C(O)[C@@H]1CCCN1 [proline] | – | enhance | suppresses |
| NC(=O)C[C@H](N)C(=O)O [asparagine] | – | enhance | – |
